Experimental data: publication PMC7108740, “Exploring the molecular structures that confer ligand selectivity for galanin type II and III receptors” (PLoS ONE, 2020)
Ends that are not written are not given here.

Assays:
Format in all cases: cell-based
[1] = target: T1, GALR3 double mutant L^100F, Y^107H (Homo sapiens, UniProt O60755, L100F/Y107H); experiment: SRE-luc luciferase assay, GALR3 L100F,Y107H; conditions: GALR3 L^100F, SRE-luc in HEK293 Gqi cells, ligand 6 h, mean ± S.E., SEM
T1 construct: expressed in transfected cells; host or cells: HEK293 cells stably expressing Gqi
T1 sequence (O60755 1-368 L100F/Y107H): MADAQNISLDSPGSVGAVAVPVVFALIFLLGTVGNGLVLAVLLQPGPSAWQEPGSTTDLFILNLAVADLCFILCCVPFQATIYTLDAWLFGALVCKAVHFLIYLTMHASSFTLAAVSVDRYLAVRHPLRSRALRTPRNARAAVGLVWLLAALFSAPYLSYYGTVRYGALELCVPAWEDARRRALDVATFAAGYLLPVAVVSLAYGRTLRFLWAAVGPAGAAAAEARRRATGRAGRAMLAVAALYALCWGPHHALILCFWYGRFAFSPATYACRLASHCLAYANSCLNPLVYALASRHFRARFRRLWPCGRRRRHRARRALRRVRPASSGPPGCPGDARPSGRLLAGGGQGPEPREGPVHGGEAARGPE
From the text: (§1) For domain swapping between GALR2 and GALR3, individual cDNA fragments of interest were amplified by polymerase chain reaction (PCR) with Pfu polymerase (ELPIS Biotech, Daejeon, Korea) and two specific primers, one corresponding to the 5' or 3' end of the GALR2 or GALR3 cDNA and the other to the region of overlap between the two receptors. The two resulting fragments, one from GALR2 and the other from GALR3, were subjected to a second round of PCR to generate the chimeric cDNAs. To construct single, double-, triple-, pentuple-, hextuple-, and septuple-mutant receptors, amino acids of GALR3 were substituted for the amino acids at the corresponding positions in GALR2 using PCR-based site-directed mutagenesis. All of the chimeric constructs were cloned into the pcDNA3 expression vector at HindⅢ and XbaⅠ sites. The DNA sequences of the chimeras were verified by automatic sequencing. HEK293 cells stably expressing the Gqi construct, which allows induction of Gq-dependent signaling pathways upon activation of a Gi-coupled receptor [14, 30], were maintained in Dulbecco's Modified Eagle's Medium (DMEM) in the presence of 10% fetal bovine serum and 1% penicillin and streptomycin. For all transfections, 200 ng DNA (100 ng receptor and 100 ng SRE-luc) mixed with lipofectamine 2000 was applied to 60–80% confluent cells on a multi-well plate according to the manufacturer's instructions (Invitrogen, Carlsbad, CA). For luciferase assays, HEK293 Gqi cells were seeded on 48-well plates at a density of 2.5 × 10^4 cells/well one day before transfection. […] The luciferase activity in 50 μl cell extract was determined using a luciferase assay system according to the standard protocol for the Synergy 2 Multi-Mode Microplate Reader (BioTek, Winooski, VT, USA). […] The concentrations of agonists that induced half-maximal stimulation (EC50) were calculated using the GraphPad PRISM5 software (GraphPad software, Inc., San Diego, CA). […]

[2] = target: T2, GALR3 mutant L^184M,V^186I,A^187C (Homo sapiens, UniProt O60755, A187C/L184M/V186I); experiment: SRE-luc luciferase assay, GALR3 L184M,V186I,A187C; conditions: GALR3 L^184M,V^186I,A^187C; SRE-luc in HEK293 Gqi cells, ligand 6 h; mean ± S.E.; SEM
T2 construct: expressed in transfected cells; host or cells: HEK293 cells stably expressing Gqi
T2 sequence (O60755 whole entry L184M/V186I/A187C): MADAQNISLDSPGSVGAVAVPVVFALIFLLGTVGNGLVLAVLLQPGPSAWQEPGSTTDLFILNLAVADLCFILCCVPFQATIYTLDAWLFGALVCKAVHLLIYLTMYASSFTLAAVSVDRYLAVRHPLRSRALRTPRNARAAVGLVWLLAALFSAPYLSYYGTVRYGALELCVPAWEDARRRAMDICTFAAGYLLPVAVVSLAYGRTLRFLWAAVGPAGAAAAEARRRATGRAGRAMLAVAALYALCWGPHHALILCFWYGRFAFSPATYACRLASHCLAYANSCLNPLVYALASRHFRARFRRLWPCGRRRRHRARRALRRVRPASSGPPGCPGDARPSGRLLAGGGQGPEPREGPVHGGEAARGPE
From the text: as §1, with “sequencing.” for “sequencing. HEK293 cells stably expressing the Gqi construct, which allows induction of Gq-dependent signaling pathways upon activation of a Gi-coupled receptor [14, 30], were maintained in Dulbecco's Modified Eagle's Medium (DMEM) in the presence of 10% fetal bovine serum and 1% penicillin and streptomycin. For all transfections, 200 ng DNA (100 ng receptor and 100 ng SRE-luc) mixed with lipofectamine 2000 was applied to 60–80% confluent cells on a multi-well plate according to the manufacturer's instructions (Invitrogen, Carlsbad, CA). For luciferase assays, HEK293 Gqi cells were seeded on 48-well plates at a density of 2.5 × 10^4 cells/well one day before transfection.”

[3] = target: T3, GALR3 single mutant L^184M (Homo sapiens, UniProt O60755, L184M); experiment: SRE-luc luciferase assay, GALR3 L184M; conditions: GALR3 L^184M; SRE-luc in HEK293 Gqi cells, ligand 6 h; mean ± S.E.; SEM
T3 construct: expressed in transfected cells; host or cells: HEK293 cells stably expressing Gqi
T3 sequence (O60755 whole entry L184M): as the sequence (O60755 whole entry L184M/V186I/A187C) above, with I186V, C187A counted along it
From the text: as §1, with “sequencing.” for “sequencing. HEK293 cells stably expressing the Gqi construct, which allows induction of Gq-dependent signaling pathways upon activation of a Gi-coupled receptor [14, 30], were maintained in Dulbecco's Modified Eagle's Medium (DMEM) in the presence of 10% fetal bovine serum and 1% penicillin and streptomycin. For all transfections, 200 ng DNA (100 ng receptor and 100 ng SRE-luc) mixed with lipofectamine 2000 was applied to 60–80% confluent cells on a multi-well plate according to the manufacturer's instructions (Invitrogen, Carlsbad, CA). For luciferase assays, HEK293 Gqi cells were seeded on 48-well plates at a density of 2.5 × 10^4 cells/well one day before transfection.”

[4] = target: T4, GALR3 single mutant V^186I (Homo sapiens, UniProt O60755, V186I); experiment: SRE-luc luciferase assay, GALR3 V186I; conditions: GALR3 V^186I; SRE-luc in HEK293 Gqi cells, ligand 6 h; mean ± S.E.; SEM
T4 construct: expressed in transfected cells; host or cells: HEK293 cells stably expressing Gqi
T4 sequence (O60755 whole entry V186I): as the sequence (O60755 whole entry L184M/V186I/A187C) above, with M184L, C187A counted along it
From the text: as §1, with “sequencing.” for “sequencing. HEK293 cells stably expressing the Gqi construct, which allows induction of Gq-dependent signaling pathways upon activation of a Gi-coupled receptor [14, 30], were maintained in Dulbecco's Modified Eagle's Medium (DMEM) in the presence of 10% fetal bovine serum and 1% penicillin and streptomycin. For all transfections, 200 ng DNA (100 ng receptor and 100 ng SRE-luc) mixed with lipofectamine 2000 was applied to 60–80% confluent cells on a multi-well plate according to the manufacturer's instructions (Invitrogen, Carlsbad, CA). For luciferase assays, HEK293 Gqi cells were seeded on 48-well plates at a density of 2.5 × 10^4 cells/well one day before transfection.”

[5] = target: T5, GALR3 mutant L^184M,V^186I,A^187C, A^190V,G^192S (Homo sapiens, UniProt O60755, A187C/A190V/G192S/L184M/V186I); experiment: SRE-luc luciferase assay, GALR3 pentuple mutant (G192S); conditions: GALR3 L^184M,V^186I,A^187C, SRE-luc in HEK293 Gqi cells, ligand 6 h, mean ± S.E., SEM
T5 construct: expressed in transfected cells; host or cells: HEK293 cells stably expressing Gqi
T5 sequence (O60755 whole entry L184M/V186I/A187C/A190V/G192S): as the sequence (O60755 whole entry L184M/V186I/A187C) above, with A190V, G192S counted along it
From the text: as §1, with “sequencing.” for “sequencing. HEK293 cells stably expressing the Gqi construct, which allows induction of Gq-dependent signaling pathways upon activation of a Gi-coupled receptor [14, 30], were maintained in Dulbecco's Modified Eagle's Medium (DMEM) in the presence of 10% fetal bovine serum and 1% penicillin and streptomycin. For all transfections, 200 ng DNA (100 ng receptor and 100 ng SRE-luc) mixed with lipofectamine 2000 was applied to 60–80% confluent cells on a multi-well plate according to the manufacturer's instructions (Invitrogen, Carlsbad, CA). For luciferase assays, HEK293 Gqi cells were seeded on 48-well plates at a density of 2.5 × 10^4 cells/well one day before transfection.”

[6] = target: T6, GALR3 mutant L^184M,V^186I,A^190V (Homo sapiens, UniProt O60755, A190V/L184M/V186I); experiment: SRE-luc luciferase assay, GALR3 L184M,V186I,A190V; conditions: GALR3 L^184M,V^186I,A^190V; SRE-luc in HEK293 Gqi cells, ligand 6 h; mean ± S.E.; SEM
T6 construct: expressed in transfected cells; host or cells: HEK293 cells stably expressing Gqi
T6 sequence (O60755 whole entry L184M/V186I/A190V): as the sequence (O60755 whole entry L184M/V186I/A187C) above, with C187A, A190V counted along it
From the text: as §1, with “sequencing.” for “sequencing. HEK293 cells stably expressing the Gqi construct, which allows induction of Gq-dependent signaling pathways upon activation of a Gi-coupled receptor [14, 30], were maintained in Dulbecco's Modified Eagle's Medium (DMEM) in the presence of 10% fetal bovine serum and 1% penicillin and streptomycin. For all transfections, 200 ng DNA (100 ng receptor and 100 ng SRE-luc) mixed with lipofectamine 2000 was applied to 60–80% confluent cells on a multi-well plate according to the manufacturer's instructions (Invitrogen, Carlsbad, CA). For luciferase assays, HEK293 Gqi cells were seeded on 48-well plates at a density of 2.5 × 10^4 cells/well one day before transfection.”

[7] = target: T7, GALR3 mutant L^184M,V^186I,A^187C, A^190V,A^191F,G^192S (Homo sapiens, UniProt O60755, A187C/A190V/A191F/G192S/L184M/V186I); experiment: SRE-luc luciferase assay, GALR3 hextuple mutant; conditions: GALR3 L^184M,V^186I,A^187C, SRE-luc in HEK293 Gqi cells, ligand 6 h, mean ± S.E., SEM
T7 construct: expressed in transfected cells; host or cells: HEK293 cells stably expressing Gqi
T7 sequence (O60755 whole entry L184M/V186I/A187C/A190V/A191F/G192S): as the sequence (O60755 whole entry L184M/V186I/A187C) above, with A190V, A191F, G192S counted along it
From the text: as §1, with “sequencing.” for “sequencing. HEK293 cells stably expressing the Gqi construct, which allows induction of Gq-dependent signaling pathways upon activation of a Gi-coupled receptor [14, 30], were maintained in Dulbecco's Modified Eagle's Medium (DMEM) in the presence of 10% fetal bovine serum and 1% penicillin and streptomycin. For all transfections, 200 ng DNA (100 ng receptor and 100 ng SRE-luc) mixed with lipofectamine 2000 was applied to 60–80% confluent cells on a multi-well plate according to the manufacturer's instructions (Invitrogen, Carlsbad, CA). For luciferase assays, HEK293 Gqi cells were seeded on 48-well plates at a density of 2.5 × 10^4 cells/well one day before transfection.”

[8] = target: T8, GALR3 single mutant A^190V (Homo sapiens, UniProt O60755, A190V); experiment: SRE-luc luciferase assay, GALR3 A190V; conditions: GALR3 A^190V; SRE-luc in HEK293 Gqi cells, ligand 6 h; mean ± S.E.; SEM
T8 construct: expressed in transfected cells; host or cells: HEK293 cells stably expressing Gqi
T8 sequence (O60755 whole entry A190V): as the sequence (O60755 whole entry L184M/V186I/A187C) above, with M184L, I186V, C187A, A190V counted along it
From the text: as §1, with “sequencing.” for “sequencing. HEK293 cells stably expressing the Gqi construct, which allows induction of Gq-dependent signaling pathways upon activation of a Gi-coupled receptor [14, 30], were maintained in Dulbecco's Modified Eagle's Medium (DMEM) in the presence of 10% fetal bovine serum and 1% penicillin and streptomycin. For all transfections, 200 ng DNA (100 ng receptor and 100 ng SRE-luc) mixed with lipofectamine 2000 was applied to 60–80% confluent cells on a multi-well plate according to the manufacturer's instructions (Invitrogen, Carlsbad, CA). For luciferase assays, HEK293 Gqi cells were seeded on 48-well plates at a density of 2.5 × 10^4 cells/well one day before transfection.”

[9] = target: T9, GALR3 mutant L^184M,V^186I,A^187C, A^190V,A^191F (Homo sapiens, UniProt O60755, A187C/A190V/A191F/L184M/V186I); experiment: SRE-luc luciferase assay, GALR3 pentuple mutant (A191F); conditions: GALR3 L^184M,V^186I,A^187C, SRE-luc in HEK293 Gqi cells, ligand 6 h, mean ± S.E., SEM
T9 construct: expressed in transfected cells; host or cells: HEK293 cells stably expressing Gqi
T9 sequence (O60755 whole entry L184M/V186I/A187C/A190V/A191F): as the sequence (O60755 whole entry L184M/V186I/A187C) above, with A190V, A191F counted along it
From the text: as §1, with “sequencing.” for “sequencing. HEK293 cells stably expressing the Gqi construct, which allows induction of Gq-dependent signaling pathways upon activation of a Gi-coupled receptor [14, 30], were maintained in Dulbecco's Modified Eagle's Medium (DMEM) in the presence of 10% fetal bovine serum and 1% penicillin and streptomycin. For all transfections, 200 ng DNA (100 ng receptor and 100 ng SRE-luc) mixed with lipofectamine 2000 was applied to 60–80% confluent cells on a multi-well plate according to the manufacturer's instructions (Invitrogen, Carlsbad, CA). For luciferase assays, HEK293 Gqi cells were seeded on 48-well plates at a density of 2.5 × 10^4 cells/well one day before transfection.”

[10] = target: T10, GALR3 single mutant G^192S (Homo sapiens, UniProt O60755, G192S); experiment: SRE-luc luciferase assay, GALR3 G192S; conditions: GALR3 G^192S; SRE-luc in HEK293 Gqi cells, ligand 6 h; mean ± S.E.; SEM
T10 construct: expressed in transfected cells; host or cells: HEK293 cells stably expressing Gqi
T10 sequence (O60755 whole entry G192S): as the sequence (O60755 whole entry L184M/V186I/A187C) above, with M184L, I186V, C187A, G192S counted along it
From the text: as §1, with “sequencing.” for “sequencing. HEK293 cells stably expressing the Gqi construct, which allows induction of Gq-dependent signaling pathways upon activation of a Gi-coupled receptor [14, 30], were maintained in Dulbecco's Modified Eagle's Medium (DMEM) in the presence of 10% fetal bovine serum and 1% penicillin and streptomycin. For all transfections, 200 ng DNA (100 ng receptor and 100 ng SRE-luc) mixed with lipofectamine 2000 was applied to 60–80% confluent cells on a multi-well plate according to the manufacturer's instructions (Invitrogen, Carlsbad, CA). For luciferase assays, HEK293 Gqi cells were seeded on 48-well plates at a density of 2.5 × 10^4 cells/well one day before transfection.”

| Compound | EC50 [1] [nM] | EC50 [2] [nM] | EC50 [3] [nM] | EC50 [4] [nM] | EC50 [5] [nM] | EC50 [6] [nM] | EC50 [7] [nM] | EC50 [8] [nM] | EC50 [9] [nM] | EC50 [10] [nM] |
| --- | --- | --- | --- | --- | --- | --- | --- | --- | --- | --- |
| NWTPQAALYLKGAQ-NH2 [A^7-SPX] | 69.2 ± 20.2 |  |  |  |  |  |  |  |  |  |
| NWTPQAMLYLKGPQ-NH2 [P^13-SPX] |  | 457 ± 118 | 437 ± 89.8 | 513 ± 158 | 145 ± 24.3 | 324 ± 89.2 | 112 ± 25.1 | 468 ± 105 | 141 ± 36.5 | 355 ± 109 |
| NWTPNAMLYLKGAQ-NH2 [N^5-SPX] | 155 ± 40.1 |  |  |  |  |  |  |  |  |  |
| CSCC[C@H](NC(=O)[C@H](C)NC(=O)[C@H](CCC(N)=O)NC(=O)[C@@H]1CCCN1C(=O)[C@@H](NC(=O)[C@H](Cc1c[nH]c2ccccc12)NC(=O)[C@@H](N)CC(N)=O)[C@@H](C)O)C(=O)N[C@@H](CC(C)C)C(=O)N[C@@H](Cc1ccc(O)cc1)C(=O)N[C@@H](CC(C)C)C(=O)N[C@@H](CCCCN)C(=O)NCC(=O)N[C@@H](C)C(=O)N[C@@H](CCC(N)=O)C(N)=O [SPX, reference compound] | 38.9 ± 7.28 | 115 ± 2.61 | 46.8 ± 15.9 | 141 ± 45.8 | 33.9 ± 9.89 | 49 ± 16.6 | 25.7 ± 7.92 | 77.6 ± 18.7 | 50.1 ± 16.2 | 35.5 ± 12.6 |
